For one compound, Normal melting temperature results are on record in the NIST ThermoML archive (doi:10.1016/j.tca.2009.12.017).

Numbers after ± are expanded uncertainties.

For this data set the following is noted: Crystal; Boetius hot stage apparatus.

For the compound `CNC(=O)[C@H](Cc1cnc[nH]1)NC(C)=O` [N-acetyl-N'-methyl-L-alpha-histidinamide], the Normal melting temperature was -11 ± 6 °C.
